Reference: US9681664B2, “Macrocyclic picolinamides as fungicides” (Dow Agrosciences LLC, priority 2012, dated 2017)
Like-named read-outs stand apart in the source and are kept apart here.

Assays:
Type in all cases: in vivo
[1] = test system: Puccinia triticina; Synonym: Puccinia recondite f. sp. tritici; experiment: Wheat brown rust (PUCCRT) disease control on wheat seedlings; conditions: Puccinia triticina, High volume application, 100 ppm
Procedure, shortened: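 Yuma wheat grown to first fully emerged leaf was inoculated with Puccinia triticina spore suspension either before or after fungicide treatment, held overnight at 22° C. and 100% RH in darkness, then kept at 24° C. Fungicide applied by booth sprayer to run-off (acetone/water, 110 ppm Triton X-100) or as EC by track spray.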

Uncinula necator = experiment: Grape powdery mildew (UNCINE) disease control; conditions: Erysiphe necator, 24 h, High volume application, 1 Day Protectant, read-out: UNCINE 1 DP disease control
Protocol: Technical grades of materials were dissolved in acetone, which were then mixed with nine volumes of water containing 110 ppm Triton X-100. The fungicide solutions were applied onto wheat seedlings using an automated booth sprayer to run-off. All sprayed plants were allowed to air dry prior to further handling. All fungicides were evaluated using the aforementioned method for their activity vs. all target diseases. Wheat leaf blotch and brown rust activity were also evaluated using track spray applications, in which case the fungicides were formulated as EC formulations, containing 0.1% Trycol 5941 in the spray solutions. Grape seedlings (variety Carignane) were grown in soil-less Metro mix, with one plant per pot, and used in the test when approximately one month old. Plants were inoculated 24 hr after fungicide treatment by shaking spores from infected leaves over test plants. Plants were maintained in a greenhouse set at 20° C. until disease was fully developed. Fungicide formulation, application and disease assessment on the sprayed leaves followed the procedures as described in the Example A.

Cercospora beticola = experiment: Leaf spot of sugar beets (CERCBE) disease control; conditions: 24 h, 1 Day Protectant, high volume, read-out: Disease Control CERCBE 1 DP
Protocol: Technical grades of materials were dissolved in acetone, which were then mixed with nine volumes of water containing 110 ppm Triton X-100. The fungicide solutions were applied onto wheat seedlings using an automated booth sprayer to run-off. All sprayed plants were allowed to air dry prior to further handling. All fungicides were evaluated using the aforementioned method for their activity vs. all target diseases. Wheat leaf blotch and brown rust activity were also evaluated using track spray applications, in which case the fungicides were formulated as EC formulations, containing 0.1% Trycol 5941 in the spray solutions. Sugar beet plants (variety HH88) were grown in soil-less Metro mix and trimmed regularly to maintain a uniform plant size prior to test. Plants were inoculated with a spore suspension 24 hr after fungicide treatments. Inoculated plants were kept in a dew chamber at 22° C. for 48 hr then incubated in a greenhouse set at 24° C. under a clear plastic hood with bottom ventilation until disease symptoms were fully expressed. Fungicide formulation, application and disease assessment on the sprayed leaves followed the procedures as described in the Example A.

Phakopsora pachyrhizi = experiment: Asian soybean rust (PHAKPA) disease control; conditions: topical, high volume
Protocol: Technical grades of materials were dissolved in acetone, which were then mixed with nine volumes of water containing 0.011% Tween 20. The fungicide solutions were applied onto soybean seedlings using an automated booth sprayer to run-off. All sprayed plants were allowed to air dry prior to further handling.
Soybean plants (variety Williams 82) were grown in soil-less Metro mix, with one plant per pot. Two weeks old seedlings were used for testing. Plants were inoculated either 3 days prior to or 1 day after fungicide treatments. Plants were incubated for 24 h in a dark dew room at 22° C. and 100% RH then transferred to a growth room at 23° C. for disease to develop. Disease severity was assessed on the sprayed leaves.

[2] = test system: Magnaporthe grisea; Anamorph: Pyricularia oryzae; experiment: whole plant or invertebrate; conditions: 24 h, read-out: PYRIOR 1 DP disease control
[3] = test system: Glomerella lagenarium; Anamorph: Colletotrichum lagenarium; experiment: Cucumber anthracnose (COLLLA) disease control; conditions: Colletotrichum orbiculare, 24 h, 1 Day Protectant, high volume, read-out: Disease Control COLLLA 1 DP
Protocol: Technical grades of materials were dissolved in acetone, which were then mixed with nine volumes of water containing 110 ppm Triton X-100. The fungicide solutions were applied onto wheat seedlings using an automated booth sprayer to run-off. All sprayed plants were allowed to air dry prior to further handling. All fungicides were evaluated using the aforementioned method for their activity vs. all target diseases. Wheat leaf blotch and brown rust activity were also evaluated using track spray applications, in which case the fungicides were formulated as EC formulations, containing 0.1% Trycol 5941 in the spray solutions. Cucumber seedlings (variety Bush Pickle) were propagated in soil-less Metro mix, with each pot having one plant, and used in the test when 12 to 14 days old. Test plants were inoculated with an aqueous spore suspension of Colletotrichum lagenarium 24 hr after fungicide treatments. After inoculation the plants were kept in a dew room at 22° C. with 100% relative humidity for 48 hr to permit spores to germinate and infect the leaf. The plants were then transferred to a growth room set at 22° C. for disease to develop. Fungicide formulation, application and disease assessment on the sprayed leaves followed the procedures as described in the Example A.

Rhyncosporium secalis = experiment: Barley scald (RHYNSE) disease control; conditions: 24 h, High volume application, 1 Day Protectant, read-out: RHYNSE 1 DP disease control
Protocol: Technical grades of materials were dissolved in acetone, which were then mixed with nine volumes of water containing 110 ppm Triton X-100. The fungicide solutions were applied onto wheat seedlings using an automated booth sprayer to run-off. All sprayed plants were allowed to air dry prior to further handling. All fungicides were evaluated using the aforementioned method for their activity vs. all target diseases. Wheat leaf blotch and brown rust activity were also evaluated using track spray applications, in which case the fungicides were formulated as EC formulations, containing 0.1% Trycol 5941 in the spray solutions. Barley seedlings (variety Harrington) were propagated in soil-less Metro mix, with each pot having 8 to 12 plants, and used in the test when first leaf was fully emerged. Test plants were inoculated by an aqueous spore suspension of Rhyncosporium secalis 24 hr after fungicide treatments. After inoculation the plants were kept in a dew room at 20° C. with 100% relative humidity for 48 hr. The plants were then transferred to a greenhouse set at 20° C. for disease to develop. Fungicide formulation, application and disease assessment on the sprayed leaves followed the procedures as described in the Example A.

[4] = 24 h, 1 Day Protectant, read-out: PUCCRT 1DP disease control
[5] = 72 h, 3 Day Curative, read-out: PUCCRT 3DC disease control
[6] = 24 h, 1 Day Protectant, read-out: Disease Control PHAKPA 1DP
[7] = 72 h, 3 Day Curative, read-out: Disease Control PHAKPA 3DC

Compound | pest or weed control at 100 ppm [1, 4] [%] | pest or weed control at 100 ppm [1, 5] [%] | pest or weed control at 100 ppm (Uncinula necator) [%] | pest or weed control at 100 ppm (Cercospora beticola) [%] | pest or weed control at 25 ppm (Phakopsora pachyrhizi; [6]) [%] | pest or weed control at 25 ppm (Phakopsora pachyrhizi; [7]) [%] | pest or weed control at 100 ppm [2] [%] | pest or weed control at 100 ppm [3] [%] | pest or weed control at 100 ppm (Rhyncosporium secalis) [%]
COc1ccnc(C(=O)N[C@H]2CCC[C@H](OCC(C)C)[C@@H](OC3CCCC3)[C@H](C)OC2=O)c1OCOC(=O)C(C)C [F38] | 80 to 100 | 80 to 100 | 80 to 100 | 80 to 100 | 80 to 100 | 80 to 100 | 80 to 100 | 80 to 100 | 
COCCC(=O)Oc1c(OC)ccnc1C(=O)N[C@H]1CCC[C@H](Oc2ccccc2)[C@@H](OCCCc2ccccc2)[C@H](C)OC1=O [F132] | 80 to 100 | 80 to 100 | 0 to 80 | 0 to 80 |  |  | 0 to 80 |  | 0 to 80
COc1ccnc(C(=O)N[C@H]2CCC[C@H](OCc3ccccc3)[C@@H](Oc3ccccc3)[C@H](C)OC2=O)c1OCOC(C)=O [F31] | 80 to 100 | 80 to 100 | 0 to 80 | 80 to 100 |  |  | 80 to 100 | 80 to 100 | 
COc1ccnc(C(=O)N[C@H]2CCC[C@H](OCCCc3ccccc3)[C@@H](Oc3ccccc3)[C@H](C)OC2=O)c1OC(C)=O [F134] | 80 to 100 | 80 to 100 | 0 to 80 | 80 to 100 |  |  | 80 to 100 |  | 80 to 100
COc1ccnc(C(=O)N[C@H]2CCC[C@H](OCc3ccccc3)[C@@H](OCc3ccccc3)[C@H](C)OC2=O)c1OCOC(C)=O [F30] | 80 to 100 | 80 to 100 | 0 to 80 | 0 to 80 | 80 to 100 | 0 to 80 | 80 to 100 | 80 to 100 | 
COc1ccnc(C(=O)N[C@H]2CCC[C@H](OCCCC(F)(F)F)[C@@H](OC3CCCC3)[C@H](C)OC2=O)c1OCOC(=O)C(C)C [F171] | 80 to 100 | 80 to 100 | 0 to 80 | 80 to 100 |  |  | 80 to 100 |  | 80 to 100
COc1ccnc(C(=O)N[C@H]2CCC[C@H](Oc3ccccc3)[C@@H](OCC(C)C)[C@H](C)OC2=O)c1OCOC(=O)C(C)C [F35] | 80 to 100 | 80 to 100 | 80 to 100 | 80 to 100 | 80 to 100 |  | 80 to 100 | 80 to 100 | 
COc1ccnc(C(=O)N[C@H]2CCC[C@H](OCC(C)C)[C@@H](OCC(C)C)[C@H](C)OC2=O)c1OCOC(C)=O [F29] | 80 to 100 | 80 to 100 | 80 to 100 | 80 to 100 | 80 to 100 |  | 80 to 100 | 80 to 100 | 
